Laboratory results reported in US20090181098A1, “Hmg-Co-a Reductase Inhibitor Enhancement of Bone and Cartilage” (OsteoScreen IP, LLC, priority 2006, published 2009).
Read-outs that look alike come from different tables or passages of the source.

What was measured:
[1] = poly(DL-lactide) nanoparticles
Method: The test material is lovastatin in nanoparticles prepared as described above. […] The test articles are nanoparticles with and without lovastatin. […] The lovastatin levels are determined by HPLC and the release curved is followed throughout the experiment.

osteocalcin = test: Serum osteocalcin (sandwich ELISA) in OVX rats; type: in vivo, rat; conditions: dermal gel 0.01 mg/kg/day for 5 days, day 26
Method: (§1) Blood samples were obtained at the end of the five day treatment for determination of liver and muscle enzymes (alanine aminotransferase (ALT), aspartate aminotransferase (AST), alkaline phosphatase (AP), and lactic dehydrogenase (LDH) by radioimmunoassays (Esoterix, San Antonio, Tex.). Kinetic quantitative determination of […] (CPK) in serum was estimated using a kit from Stanbio Laboratory (Boerne, Tex.). The concentration of osteocalcin was measured using a sandwich ELISA assay supplied by from Biomedical Technologies Inc.

[2] = Serum liver and muscle enzymes (ALT, AST, AP, LDH, CPK) and myotoxicity after dermal lovastatin; conditions: for ALT / AP / AST / CPK / LDH: end of 5 day treatment
Method: as §1
Three-month old virgin female Sprague Dawley rats were purchased from Harlan Laboratories, LTD (Indianapolis, Ind.). Experiments were performed using either intact, bilaterally ovariectomized (OVX) or sham-operated (SHAM) rats with treatment starting 5 days after surgery in the latter groups. Rats were weight-matched and divided into treatment groups (n=10). Compounds were administered by daily transdermal application for 5 days only or 5 days/week for 5 weeks when specified. Animals were pair-fed throughout the experimental period and weekly body weights determined and dosage adjusted accordingly. At the completion of the experiment, animals were anesthetized with a ketamine (10 mg/ml) at a dose of 100 mg/kg body weight and euthanized by cervical dislocation.

[3] = system: ovariectomized (OVX) rats; test: Effects of transdermal lovastatin on bone in ovariectomized rats (histomorphometry); type: in vivo, rat
Method: Following sacrifice, both femurs and tibiae were removed, cleaned of soft tissue, fixed in 10% formalin for 48 hours, and then stored in 70% ETOH and prepared for histology. Histomorphometric analysis was performed using a semiautomated Osteomeasure System (Osteometrics, Inc., Atlanta, Ga.) and digitizing pad and by following standard histomorphometric techniques. Bone volume, trabecular number, thickness and separation, cell number and dynamic parameters were determined as described previously by Parfitt et al. [Parfitt A M (1988) Bone histomorphometry: standardization of nomenclature, symbols and units. Summary of proposed system. J Bone Miner Res 4:1-5.]. Bone formation rates (BFR) and mineral apposition rates (MAR) were measured in plastic-embedded sections following demeclocycline and calcein injections (15 and 20 mg/kg/body weight respectively) given intraperitoneally at 10 and 4 days before sacrifice. Values for MAR were corrected for obliquity of the plane of section in cancellous bone. Rats were evaluated with a mouse densitometer, Piximus (GE Medical Systems); bone mineral density (BMD), calculated by dividing bone mineral content (g) by the projected bone area (cm^2), was assessed for the proximal third of the tibia at time 0 and at 5 weeks. Micro-computed tomography (μ-CT) analysis of the rat distal femur was kindly performed by Phil Salmon (Skyscan, Belgium). Bones were scanned using the Skyscan Model 1072 employing an x-ray tube voltage of 100 kV, and magnified to attain a pixel size of 10.13 μm. Data are expressed as the mean standard error (SEM). Statistical differences between groups were evaluated with one-way analysis of variance (ANOVA). […] P<0.05 were considered significant.

[4] = Plasma lovastatin by mass spectroscopy, fracture Experiment 2; type: in vivo; conditions: rat, 3 hrs after the last dose, read-out: Plasma lovastatin level
Method: Plasma was taken from the rats 3 hrs after the last dose and the lovastatin was measured by mass spectroscopy. […] Effective plasma levels from transdermal administration is on the order of 2-3 ng/ml.

[5] = dermal, hydrophilic petrolatum, 1 mg/kg/day
[6] = dermal, hydrophilic petrolatum, 5 mg/kg/day
[7] = aqueous alkanolic gel, lowest dose tested

With `CC[C@H](C)C(=O)O[C@H]1C[C@@H](C)C=C2C=C[C@H](C)[C@H](CC[C@@H]3C[C@@H](O)CC(=O)O3)[C@H]21` [lovastatin] the “Release rate of lovastatin from nanoparticles” value [1] was “about 2 %/day”, the Serum osteocalcin levels (osteocalcin) was “significant increase in osteocalcin levels” and the “Change in liver and muscle skeletal tissue enzymes (AST, ALT, AP, LDH, CPK)” value ([2]; dermal, aqueous alkanolic gel, 0.01 to 0.5 mg/kg/day, end of treatment, sham/ovx rats) was “No significant changes”. It also gave an ALT [2, 5] of 55 ± 3 μ/L, an AP [2, 5] of 123 ± 6 μ/L and an AST [2, 5] of 110 ± 4 μ/L. It also gave a CPK [2, 5] of 441 ± 61 μ/L, an LDH [2, 5] of 349 ± 47 μ/L and an ALT [2, 6] of 57 ± 2 μ/L. It also gave an AP [2, 6] of 115 ± 5 μ/L, an AST [2, 6] of 128 ± 7 μ/L and a CPK [2, 6] of 578 ± 45 μ/L. For the same compound, the LDH [2, 6] was 528 ± 67 μ/L, the “Change in liver and muscle enzymes (ALT, AST, AP, LDH, CPK) vs vehicle” value ([2]; dermal, hydrophilic petrolatum, 1 and 5 mg/kg/day, 5 days) was “No changes” and the “Serum creatine protein kinase (CPK), treated groups vs control” value ([2]; hydroalcoholic gel, 5 days, sham and ovx rats) was “No significant changes”. The “Non-myotoxic dose (50 mg/kg/day) relative to effective dose (0.01 mg/kg)” value ([2]; transdermal) was 5000 fold, the “Myotoxicity by CPK measurements and morphologic examination of skeletal muscles” value ([2]; transdermal, doses up to 50 mg/kg/day) was “not observed” and the “Effective transdermal dose as fraction of the dose required orally for an effect on bone formation” value ([3]; 0.01 mg/kg transdermal vs oral dose of Mundy et al. 1999) was “approximately 1/1000”. For the same compound, the Bone formation rates ([3]; 5 days of transdermal exposure, 0.01 mg/kg body weight) was “markedly increased”, the Trabecular number [3, 7] was “significant increase in trabecular number” and the Trabecular separation [3, 7] was “significant decrease in trabecular separation”. The “Increase in bone volume vs OVX rats treated with vehicle” value ([3]; dermal 1 mg/kg/day, 5 days (FIG. 4)) was 50%, the “Bone formation rates (BFR)” value ([3]; dermal, 5 day administration (FIG. 6)) was “significant increase” and the “OVX-induced changes in trabecular thickness, number and separation” value ([3]; dermal, 5 days (FIG. 5)) was “partly prevented these changes”. For the same compound, the “Bone volume by histomorphometry” value ([3]; dermal, aqueous alkanolic gel, 0.01 to 0.5 mg/kg/day for 5 days, significant at 0.01 mg/kg/day) was “increased bone volume at all the doses tested”, the “Increase in bone volume vs vehicle-treated OVX rats” value ([3]; dermal, hydroalcoholic gel, 0.01 to 0.5 mg/kg/day for 5 days, proximal tibiae, four weeks after dosing) was greater than 40% and the “Increase in bone volume vs vehicle-treated OVX rats” value ([3]; dermal, hydrophilic petrolatum, 5 days, even at the lowest dose (FIG. 3b)) was greater than 50%. The “Cancellous bone connectivity (trabecular thickness, number, separation, star volume, fractal dimension, pattern factor)” value ([3]; transdermal) was “increased cancellous bone connectivity”, the concentration at 3 h ([4]; oral 5 mg/kg/day) was 10 ng/mL and the concentration at 3 h ([4]; topical, transdermal 0.1 and 1 mg/kg/day) was 2 to 3 ng/mL.
